# Measured values: patent US12583888B2, “Bi-specific extracellular matrix binding peptides and methods of use thereof” (University of Tartu, priority 2019, dated 2026)
# Several values for one entry are separate records, joined by “and”; a condition that tells them apart may be missing. Identical values can stand only once. No end group written: not given here.
# Key:
# normal brain = conditions: i.v. equimolar mix, 2 h circulation
# Description: (§1) In vivo play-off was used to evaluate systemic homing of peptide phage to xenograft tumor models. The in vitro selected candidate TNC-C binding peptides, phages displaying published tumor homing peptides, and control peptides were amplified and purified by precipitation with PEG-8000 (Sigma-Aldrich, St. Louis, MO, USA), followed by CsCl2 gradient ultracentrifugation and dialysis. The amplified phage peptides were pooled in equimolar quantities, and injected intravenously (final 1×10^10 pfu in 200 μl PBS) in tumor-bearing mice for two hour circulation, after which mice were anesthetized with 2.5% avertin and intracardially perfused with DMEM intracardially. The tumors and organs were collected in lysogeny broth (LB)+1% NP40, and the tissues were homogenized using a hand-held homogenizer for phage peptide rescue. Phages in the tissue lysates were amplified in E. coli, purified by precipitation with PEG-8000 and DNA was extracted using a DNA extraction kit (High Pure PCR Template Preparation Kit; Roche, Basel, Switzerland). Next-generation sequencing of phage genomic DNA evaluated the representation of each phage in input mixture, in tumor and control organs with Ion Torrent system (Thermo Fisher Scientific, Waltham, MA, USA). The next generation deep sequencing of phage library was done using Ion Torrent according to the manufacturer's protocol with slight modification. The FASTQ data from Ion Torrent was processed by a custom python script that identified the barcodes, constant flanking residues, and extracted the reads of the correct length.
# P13 tumor = conditions: i.v. equimolar mix, 2 h circulation
# Description: as §1
# WT-GBM tumor = conditions: i.v. equimolar mix, 2 h circulation
# Description: as §1
# U87-MG glioblastoma = conditions: i.v. equimolar mix, 2 h circulation
# Description: as §1
# [1] = tested on: PC3 prostate carcinoma xenografts; conditions: i.v. equimolar mix, 2 h circulation
# Description: as §1
# P3 stem cell-like tumor = conditions: i.v. equimolar mix, 2 h circulation
# Description: as §1
# TNC-C = molecular target: T1, TNC-C (Homo sapiens, UniProt P24821); experiment: Individual peptide-phage binding to TNC-C; conditions: individual peptide phages
# T1 construct: made in house; host or cells: E. coli BL21 Rosetta 2 (DE3) pLysS
# T1 sequence (P24821 with tags, fused parts or gaps): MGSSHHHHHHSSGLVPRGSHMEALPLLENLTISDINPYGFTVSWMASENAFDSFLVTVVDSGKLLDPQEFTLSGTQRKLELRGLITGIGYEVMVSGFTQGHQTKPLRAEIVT
# orthotopic NCH421K GBM = experiment: Magnetic resonance imaging of NW-injected mice; type: in vivo
# Method: For MRI, nude mice bearing orthotopic NCH421k GBM were i.v. injected with iron oxide nanoworms at 5 mg/kg. Five hours after NW injection, the mice were anesthetized with isoflurane and subjected to MRI using a 9.4 Tesla BioSpec 94/21 (Bruker BioSpin MRI GmbH, Ettlingen, Germany) equipped with ParaVision Acquisition 6.0.1 software (Bruker, Ettlingen, Germany). Following intravital MRI, the animals were perfused with PBS to remove blood and background circulating NWs and subjected to postmortem MRI. After imaging, tumors and control tissues were harvested and sectioned for immunofluorescence staining. Mice received isoflurane in oxygen mix (1.5%, flow rate of 200 ml/min) for anesthesia; the body temperature and breathing rate were monitored throughout the experiments. T2* map MGE (Multiple Gradient Echo) sequences were acquired in sagittal and coronal orientations. The following parameters were used during the data acquisition: slice thickness −0.375 mm (3 slices averaged offline for improved signal/noise ratio); inter-slice gap −0.375 mm; repetition time −800; Echo time ˜3.5-38.5 ms; flip angle ˜50°; axial slices ˜128, pixel bandwidth ˜292.9; imaging frequency ˜400.3; matrix ˜256×256, and magnetic field strength ˜9.4. To calculate T2 relaxation times, regions of interest (ROIs) were drawn manually on the images by using image sequence analysis (ISA) tool package (Paravision 5, Bruker) using T2vtr fit function y=A+C*exp (−t/T2) (A=Absolute bias, C=signal intensity, T2=spin-spin relaxation time) for T2 evaluation. To calculate mean signal intensity in the tumor to a reference region, ROIs were drawn manually on the images at given echo time (TE). Experiments were repeated in triplicate.
# [2] = tested on: orthotopic WT-GBM glioblastoma; experiment: Systemic NW tumor homing, FAM signal by confocal microscopy; type: in vivo, mice; conditions: WT tumors, 7.5 mg/kg i.v., 5 h
# Method: (§3) FAM-labeled PL2 peptide coupled NW or control FAM-NW (7.5 mg/kg) in PBS were injected into the tail vein of the subcutaneous U87, PC3, and orthotropic WT-GBM tumor mice. Five h after circulation, the tumor and organs were collected by cardiac perfusion of mice with 20 ml PBS/DMEM under deep anesthesia. Tissues were imaged under an Illuminatool Bright Light System LT-9900 (Lightools Research, Encinitas, CA, USA) before Snap-frozen. The frozen tissues were cryosectioned 8-10 μm and mounted on a superfrost+ slides. The sections were equilibrated at RT and fixed with 4% paraformaldehyde/methanol. The immunostaining performed with following primary antibodies; rabbit anti-fluorescein IgG fragment (cat. no. A889, Thermo Fisher Scientific, MA, USA), rat anti-mouse CD31 (BD Biosciences, CA, USA), and in-house prepared CF647 or CF546-labeled single chain antibodies ScFV G11, for secondary antibodies; Alexa 488 goat anti-rabbit IgG, Alexa 647 goat anti-rat IgG, and Alexa 546 goat anti-mouse IgG, were from Invitrogen, CA, USA. Nuclei were counterstained with 4′,6-diamidino-2-phenylindole (DAPI, Molecular Probes) at one 1 μg/ml. The coverslips were mounted onto glass slides with Fluoromount-G (Electron Microscopy Sciences, PA, USA) imaged using confocal microscopy (Olympus FV1200MPE, Hamburg, Germany), and analyzed using the FV10-ASW4.2 viewer/Imaris software/Fiji ImageJ.
# [3] = tested on: Ad-VEGF-A164-induced angiogenic vessels; conditions: adenovirus-injected ear, 7.5 mg/kg i.v., 24 h
# Method: Angiogenesis was induced by injecting 2.5×10^8 PFU of an adenoviral vector driving expression of mouse VEGF^164 (Ad-VEGF^164) intradermally into the left ear of 7-8 week-old female nude mice (Nagy et al., Methods Enzymol. 444:43-64 (2008)). The right ear served as a control. PL1-NW or NW (at 7.5 mg/kg) were i.v. injected 4 days after induction of angiogenesis and 24 h before intravital imaging. Texas Red/Evans Blue was i.v. injected at 30 mg/kg to allow visualization of blood vessels. The ear was fixed on the coverslip for imaging using a veterinary-grade glue tape, and a mold was prepared around the ear from agarose for imaging. The body temperature was maintained throughout the experiment with a heat mat. Images and videos were acquired at an excitation wavelength of 920 nm, optical sections were taken under identical conditions, and experiments were repeated in triplicates.
# [4] = tested on: intracranially-implanted NCH421k GBM; experiment: Experimental tumor therapy; type: in vivo, mice; design: percent of the surviving mice: concentration or dose not given beside the values
# Method: (§2) U87MG cells (4×10^6) in 100 μl PBS were implanted subcutaneously into the right flank of 11-15 week old male nude mice. The weight of animals and tumor volume [length×(width×width)/2] was recorded on every other day until tumor volume reached −100 mm^3. Animals were randomized into 4 groups (PBS, FAM-D[KLAKLAK]2-NWs, FAM-PL1-NWs, and FAM-PL1-D[KLAKLAK]2-NWs; 8 mice/group). 100 μl of NWs (at 5 mg/kg body weight of iron) or PBS was intravenously injected into the tail vein every other day for ten injections. Tumor size, body weight, survival, and behavior were recorded during treatment and post-therapy. When the tumor volume reached 2000 mm^3 (or >10% body weight), the mice were sacrificed, and organs and tumors were excised, macroscopically observed and snap frozen. Tumor volume, Kaplan-Meier survival and body weight curves were calculated using the GraphPad Prism 6 software with p-values <0.05 considered significant. For experimental therapy on intracranially-implanted NCH421k GBM, 32 tumor mice were randomized into 4 groups 3 days after the tumor implantation. 100 μl of the PBS or PBS containing FAM-D[KLAKLAK]2-NWs, FAM-PL1-NWs and FAM-PL1-D[KLAKLAK]2-NWs (5 mg/kg body weight of iron; SEQ ID NO:6) were injected i.v. every other day for 10 total injections. Tumor size, body weight, survival, and behavior were recorded during and post-treatment. Kaplan-Meier survival and body weight curves were calculated using GraphPad Prism 6 and P values <0.05 were considered significant.
# [5] = tested on: s.c. U87MG glioblastoma xenografts; experiment: Systemic NW tumor homing, FAM signal by confocal microscopy; conditions: U87MG tumors, 7.5 mg/kg i.v., 5 h
# Method: as §3
# [6] = Zeta potential and size of iron oxide nanoworms by DLS; type: physicochemical; conditions: n = 3
# Method: The concentration of the NWs was determined by constructing a calibration curve with iron oxide and measuring the absorbance of NWs at 400 nm with a NanoDrop 2000c spectrophotometer (Thermo Scientific). The concentration measurements were confirmed by ICP-MS. Transmission electron microscopy (TEM, Tecnai 10, Philips, Netherlands) was used to image the nanoparticles. Dynamic Light Scattering (DLS; Zetasizer Nano ZS, Malvern Instruments, UK) was used to assess the zeta potential, polydispersity and size of NWs.
# s.c. U87MG tumors = experiment: Experimental tumor therapy; type: in vivo, mice
# Method: as §2, with “100 μl of the PBS or PBS containing FAM-D[KLAKLAK]2-NWs, FAM-PL1-NWs and FAM-PL1-D[KLAKLAK]2-NWs (5 mg/kg body weight of iron; SEQ ID NO:6) were injected i.v. every other day for 10 total injections.” left out
# [7] = tested on: PC3 prostate carcinoma xenografts; experiment: Systemic NW tumor homing, FAM signal by confocal microscopy; type: in vivo, mice; conditions: PC3 tumors, 7.5 mg/kg i.v., 5 h
# Method: as §3
# clinical GBM samples = experiment: NW overlay assay on clinical GBM cryosections; design: species or system human; conditions: confocal imaging
# Method: Fresh surgical GBMs ([…]) were snap-frozen in liquid nitrogen, cryosectioned at 8 μm, fixed with methanol, and permeabilized with TBS followed by blocking buffer containing 5% BSA, 5% goat serum and 5% FBS in TBS. For overlay, the sections were incubated with […] of PL1-NW or NW at 4° C. overnight. The sections were washed and blocked with blocking buffer, followed by immunostaining using rabbit anti-fluorescein primary antibodies and detection with the Alexa-488 anti-rabbit secondary antibody. FN-EDB and TNC-C were detected by fluorescently labeled single-chain antibodies ScFV L19 FN-EDB-CF647 and ScFV G11 TNC-C-CF555.
# [8] = tested on: orthotopic NCH421K glioblastoma xenografts; experiment: Systemic NW tumor homing, FAM signal by confocal microscopy; type: in vivo, mice; conditions: NCH421K tumors, 7.5 mg/kg i.v., 5 h
# Method: For NW biodistribution studies, NWs (7.5 mg/kg) in PBS were injected into the tail vein of the tumor-bearing mice, followed by cardiac perfusion with 20 ml PBS/DMEM before collection tumor and control organs for imaging. In control experiments, NW injection was preceded by systemic pre-injection of blocking FN-EDB and/or TNC-C antibodies (30 μg/mouse) 15 min prior to injection of the NWs.
# Snap-frozen 10 μm tumor cryosections were mounted on Superfrost™^+ slides. The sections were equilibrated at RT and fixed with 4% paraformaldehyde/methanol and permeabilized with PBST (PBS+0.05% Tween 20), blocked with PBST, 5% BSA, 5% goat serum (GE Healthcare, Little Chalfont, UK) at RT for 30 min, followed by primary antibody incubation at RT for 1 h. […] The coverslips were mounted on glass slides with Fluoromount-G (Electron Microscopy Sciences, PA, USA), imaged using confocal microscopy (Olympus FV1200MPE, Tokyo, Japan) and analyzed using the FV10-ASW4.2 viewer, Imaris software and ImageJ freeware.
substance,measurement,setting,value
AVRGRLRVAKLAAALE [TNC-C-selected phage clones 3 and 7],"Representation of phage in control brain tissue (fold G7 control phage), Norm. brain",normal brain,0.1 fold
same,"Representation of phage in tumors (fold G7 control phage), P13",P13 tumor,0.6 fold
same,"Representation of phage in tumors (fold G7 control phage), WT-GBM",WT-GBM tumor,1.3 fold
same,"Representation of phage in tumors (fold G7 control phage), U87-MG",U87-MG glioblastoma,0.8 fold
same,"Representation of phage in tumors (fold G7 control phage), PC3",[1],1.0 fold
same,"Representation of phage in tumors (fold G7 control phage), P3 SCL",P3 stem cell-like tumor,0.6 fold
same,TNC-C binding (fold G7 control phage),TNC-C,5333 fold and 7111 fold
PL1-NW: iron oxide nanoworms coated with FAM-labeled PL1 peptide (CPPRRGLIKLKTS; not fully specified (residue 1); also: FAM label),decrease of T2* relaxation time within the tumor,orthotopic NCH421K GBM; 5 mg/kg iron i.v.,27-36%
same,T2* relaxation time within the tumor,"orthotopic NCH421K GBM; after NW injection, first value (post-scan, 5 h)",17 ± 1 ms
same,T2* relaxation time within the tumor,"orthotopic NCH421K GBM; after NW injection, second value (perfused)",14 ± 4 ms
same,T2* relaxation time within the tumor,orthotopic NCH421K GBM; before NW injection (pre-scan),about 23±2 ms
same,increase in NW accumulation compared to non-targeted NWs,[2],3.3 fold
same,increase in accumulation in angiogenic vessels relative to nontargeted NWs,[3],~3 fold
same,Median survival,[4]; Kaplan-Meier,42 days
same,percent of the surviving mice,[4]; day 0,100%
same,percent of the surviving mice,[4]; day 32,100%
same,percent of the surviving mice,[4]; day 37,75%
same,percent of the surviving mice,[4]; day 38,62.5%
same,percent of the surviving mice,[4]; day 39,62.5%
same,percent of the surviving mice,[4]; day 40,62.5%
same,percent of the surviving mice,[4]; day 41,62.5%
same,percent of the surviving mice,[4]; day 42,37.5%
same,percent of the surviving mice,[4]; day 43,25%
same,percent of the surviving mice,[4]; day 44,0%
same,increase in NW accumulation compared to non-targeted NWs,[5],5 fold
same,Zeta Potential,[6],−10.3 ± 0.7 mV
same,Median survival,"s.c. U87MG tumors; U87MG, Kaplan-Meier",39 days
same,percent of the surviving mice,"s.c. U87MG tumors; U87MG, day 0",100%
same,percent of the surviving mice,"s.c. U87MG tumors; U87MG, day 29",88%
same,percent of the surviving mice,"s.c. U87MG tumors; U87MG, day 31",75%
same,percent of the surviving mice,"s.c. U87MG tumors; U87MG, day 33",75%
same,percent of the surviving mice,"s.c. U87MG tumors; U87MG, day 35",63%
same,percent of the surviving mice,"s.c. U87MG tumors; U87MG, day 37",63%
same,percent of the surviving mice,"s.c. U87MG tumors; U87MG, day 39",38%
same,percent of the surviving mice,"s.c. U87MG tumors; U87MG, day 41",25%
same,percent of the surviving mice,"s.c. U87MG tumors; U87MG, day 43",25%
same,percent of the surviving mice,"s.c. U87MG tumors; U87MG, day 45",13%
same,percent of the surviving mice,"s.c. U87MG tumors; U87MG, day 49",13%
same,percent of the surviving mice,"s.c. U87MG tumors; U87MG, day 57",0%
same,tumor growth,"s.c. U87MG tumors; s.c. U87MG, i.v. every other day, 10 injections, 5 mg/kg iron",only a slight reduction in tumor growth
same,increase in NW accumulation compared to non-targeted NWs,[7],4.7 fold
same,binding to clinical GBM cryosections,clinical GBM samples,showed binding to all human GBM samples tested
same,increase in NW accumulation compared to non-targeted NWs,[8],8.8 fold
